Patent US12479803B2, “Antimalarial compounds” (UNIVERSITY OF CENTRAL FLORIDA RESEARCH FOUNDATION, INC., priority 2019, dated 2025)
Entries after “also recorded” stand apart in the source; their conditions may differ. Where two headings read alike, the source gives them in different places. Marks after values point to notes of the source that are not given here.

Tests used:
[1] = tested on: CQ-resistant (Dd2) strain of P. falciparum; settings: value reported from another study; cited from earlier work
[2] = tested on: CQ-resistant (Dd2) strain of P. falciparum; assay: In vitro antiplasmodial activity, SYBR Green I fluorescence assay, Dd2 strain; assay type: cell-based, Plasmodium falciparum; settings: for RI, resistance index = [IC50 (Dd2)/IC50 (3D7)]: Dd2 versus 3D7
Description: (§1) A set of 104 new styrylquinoline derivatives were synthesized and investigated for in vitro their antimalarial activity. To test antimalarial activities, different dilutions of compounds were added to P. falciparum culture. Following 72 h incubation at 37° C. in an atmosphere containing 5% CO2, the inhibitory property of the compounds were determined by SYBR Green I fluorescence assay. Meanwhile, SARs studies were conducted.
The SAR studies were focused on improving the in vitro activity of 2-arylvinylquinolines against the CQ-resistant Pf Dd2 strain.

[3] = tested on: P. falciparum 3D7 strain (CQ-sensitive); assay: In vitro antiplasmodium activity, 3D7 strain; assay type: cell-based, Plasmodium falciparum; settings: Plasmodium falciparum, 3D7; Table 6A, nM; footnote calls it IC50; read-out: Antiplasmodium activity 3D7 (converted)
Description: as §1

[4] = Cytotoxicity assay using MTS in human hepatocytes; assay type: cell-based; settings: human, HepG2 cells (human hepatocytes); Table 6B, unit inferred; footnote IC50 (HepG2); read-out: Cytotoxic activity HepG2 (converted)
[5] = tested on: HepG2; assay: Cytotoxicity assay using MTS in human hepatocytes; assay type: cell-based; settings: HepG2 versus Dd2
[6] = In vitro microsomal turnover assay (metabolic stability); settings: mouse; for Clint / % remaining after 60 min: microsomes; for % remaining after 60 min: 1 h
Description: Selectivity of compounds were determined by cytoxicity assay using MTS [(3-(4,5-dimethylthiazol-2-yl)-5-(3-carboxymethoxyphenyl)-2-(4-sulfophenyl)-2H-tetrazolium) in human hepatocytes. The metabolic stability of compounds was determined in mouse liver microsomes using an NADPH-regenerating system. The aqueous solubility at pH 7.4 was determined by UV-visible absorption based method. The permeability was assessed by the in vitro double-sink parallel artificial membrane permeability assay 52 that is a model for the passive transport from the gastrointestinal tract into the blood stream.
To assess the metabolic stability, the selected compounds were subjected to an in vitro microsomal turnover assay with mouse liver microsomal preparations. This assay determines the percentage of the parent compound residues after 60 min incubation (Table 7).

[7] = tested on: early stage (I-III) gametocytes of 3D7 expressing luciferase parasite; assay: In vitro gametocytocidal activity, early stage; assay type: cell-based, Plasmodium falciparum; settings: Plasmodium falciparum
From the text: (§2) Late stage (IV-V) gametocytes are more refractory to antimalarial drugs than early-stage gametocytes and blood stage parasites, and thus fewer compounds are effective against late stage Pf gametocytes. […] FIGS. 4A and 4B are an examples according to various embodiments illustrating results showing the activity of compound 24 on gametocyte stages, based on an evaluation of the viability of gametocytes after the exposure of compound 24 on early (A) and late (B) gametocytes stages of 3D7 expressing luciferase parasite. In FIGS. 4A and 4B, EC50 data represent the means and SEMs of three experiments. Therefore, arylvinylquinolines represented good leads as new antimalarials with promising dual stage (blood and gametocyte) activity.

[8] = tested on: late stage (IV-V) gametocytes of 3D7 expressing luciferase parasite; assay: In vitro gametocytocidal activity, late stage; assay type: cell-based, Plasmodium falciparum; settings: Plasmodium falciparum, 3D7
From the text: as §2

[9] = tested on: β-hematin crystal formation; assay: β-hematin inhibition experiment; assay type: biochemical; settings: 100 μM hemin, 16 h at 37° C., up to 200 μM compound
Description: CQ and other aminoquinolines are known to fight against the malaria parasites by blocking hematin biocrystallization (hemozoin formation) through π-π stacking between the aminoquinoline scaffold and the heme. As a result, the accumulated toxic heme causes the parasite death by introducing oxidative membrane damage. β-hematin inhibition experiments were performed to determine possible mode of actions of arylvinylquinolines. FIG. 5A is an example according to various embodiments illustrating images of β-hematin crystals after incubation of 100 μM hemin, propionate buffer, phosphatidylcholine and, several concentrations of compound for 16 h at 37° C. […] In FIGS. 5A and 5B, the data are mean±SEM.

[10] = tested on: tightly synchronized Dd2 parasites; assay: Developmental stage specific action (Giemsa microscopy and flow cytometry); assay type: cell-based, Plasmodium falciparum; settings: 5×EC50, treated at 6, 18, 30 and 42 h post-invasion
Description: Accurate definition of the timing of action of antimalarial agents could give valuable insights into the developmental growth and clinical clearance of the parasite. To further understand the antimalarial activity of arylvinylquinolines, the developmental stage specific action of the most promising compound 24 was determined by both microscopy and flow cytometry analysis. Tightly synchronized cultures were exposed to 5×EC50 concentration of compound 24 at 6, 18, 30 and 42 hours post-invasion (HPI) of the merozoites. Microscopic analysis of Giemsa-stained-thin smears and flow cytometric evaluation were performed at 12 h intervals.
In FIGS. 2A and 2B, the results are representative of three independent biological replicates.

[11] = tested on: asynchronous Dd2 parasite cultures; assay: Kill kinetic experiments (rate of killing, parasitocidal/parasitostatic); assay type: cell-based, Plasmodium falciparum; settings: 5×EC50 (Atovaquone 6.6 nM) for 6, 12, 24 and 48 h
Description: To study whether arylvinylquinolines exerted their antiplasmodial activity through a parasitocidal or parasitostatic mechanism, kill kinetic experiments in Dd2 strain were performed. […] After washing to remove the inhibitors at these time points, the growth of the cultures was continued to be assessed for 96 h.
FIGS. 3A, 3B, 3C, and 3D are examples according to various embodiments illustrating rate of killing and parasitocidal/parasitostatic activity determination of arylvinylquinolines. […] After each exposure, cultures were washed three times in RPMI, resuspended in culture media, and monitored for parasite growth daily for 4 days. DHA and Atovaquone (50 nM and 6.6 nM) were included as fast and slow acting controls, respectively. Parasitemia was determined by microscopy of Giemsa stained smear.

[12] = tested on: P. berghei ANKA strain expressing luciferase; assay: Rodent malaria model, Peters' four-day test with IVIS luminescence; assay type: in vivo; settings: once daily, po
Description: Phosphate salts of 24, 29 and 88 were assessed (referred to hereinafter as 24 s, 29 s, and 88 s) in female Swiss Webster mice infected with P. berghei ANKA strain since this strain produced histopathological and immunopathological features which were particularly similar to human cerebral malaria. […] FIG. 6B is an example according to various embodiments illustrating a chart showing the luminescence detected and quantified 7 days after infection of the Swiss Webster females shown in FIG. 6A, using an in vivo imaging system (IVIS). […] As observed from FIG. 6A-B, all these compounds completely cured malaria infection in mice when exposed to 100 mg/kg daily by p.o. administration in a standard Peters' four-day test, and no parasites visible in any of the tested mice were observed. […] Actually, this signal can also arise from dying parasites.

[13] = tested on: P. berghei ANKA strain expressing luciferase; assay: Survival of P. berghei ANKA infected mice (30 days)
Description: In light of in vitro metabolic stability and in vivo efficacy mentioned above, compound 24 s was also administered at 100 and 25 mg/kg to malaria infected mice, and the survival rate was evaluated for 30 days. […] BALB/c females were infected with P. berghei ANKA strain expressing luciferase and treated 4 h post-infection with 25 and 100 mg/kg orally once daily for 4 days.

[14] = mouse liver microsomes; value reported from an initial study; cited from earlier work
[15] = tested on: malaria infection in mice; settings: cited from earlier work
[16] = Plasmodium falciparum, DD2, Table 6A, unit not given (text gives nM), footnote calls it IC50, read-out: Antiplasmodium activity Dd2 (converted)
[17] = Plasmodium falciparum, CQ-resistant (Dd2) strain, 72 h incubation, read-out: EC50 (nmol)
[18] = Plasmodium falciparum, Dd2 strain, read-out: EC50

Compound	RI, resistance index = [IC50 (Dd2)/IC50 (3D7)] [2]	EC50 [2, 16]	EC50 [2, 17]	EC50 [2, 18]	EC50 [3]	IC50 [4]	SI, selectivity index = [IC50 (HepG2)/IC50 (Dd2)] [5]	Projected t1/2 [6]	Clint [6]	% remaining after 60 min [6]	other results
C[C@@H]1CC[C@H]2[C@@H](C)C(=O)O[C@@H]3O[C@@]4(C)CC[C@@H]1[C@]32OO4 [Artemisinin]											EC50 [1]: 28 ± 6 nM
CN(C)CCNc1cc(/C=C/c2ccc(C(F)(F)F)cc2)nc2ccc(Cl)cc12 [Compound 24]	0.6	10.9 ± 1.9 nM	10.9 ± 1.9 nM	≤ 15 nM	16.8 ± 0.8 nM	11200 ± 1860 nM	1031	1.737 h	13.3 µL/min/mg	67.1%	IC50 ([2]; Plasmodium falciparum, Dd2 strain): ≤ 15 nM; IC50 ([7]; 3D7, read-out: Early stage IC50 (nM)): 472 ± 18.4 nM; EC50 ([7]; 3D7, read-out: Pf Gametocyte EC50 (early stage)): 472 ± 18.4 nM; IC50 ([8]; late stage gametocytes, means and SEMs of three experiments): 394 ± 99.4 nM; EC50 ([8]; read-out: Pf Gametocyte EC50 (late stage)): 394 ± 99.4 nM; inhibitory activity towards β-hematin formation [9]: weaker inhibitory activity; also recorded: very low activity; stage-specific inhibition of P. falciparum growth [10]: blocked at the trophozoite stage; rate of killing (parasitemia after exposure and wash-out) [11]: remarkable reduction in parasitemias; in vivo efficacy (efficacious dose) [12]: 25 mg/kg; mice with 100% reduction of parasitemia ([13]; 25 mg/kg, po): 3/4; mice with 100% reduction of parasitemia ([13]; 100 mg/kg, p.o.): 5/5; tolerability / signs of toxicity ([13]; infected mice, 25 and 100 mg/kg p.o.): without apparent signs of toxicity
CCN(CC)CCCC(C)Nc1cc(/C=C/c2ccc([N+](=O)[O-])cc2)nc2ccc(OC)cc12 (centres unmarked) [Compound according to Formula 1, reference compound]	0.6	67 ± 8 nM	67 ± 8 nM	67 ± 8 nM	119 ± 3 nM	12920 ± 70.1 nM	193	0.692 h	33.4 µL/min/mg	36.7%	SI, selectivity index = [IC50 (HepG2)/IC50 (Dd2)] ([5]; listed as Compd. of Formula 1): 192; % remaining after 60 min [14]: 47.8^a %; Projected t1/2 (min) [14]: 56.2^a min; mice cured of malaria infection ([15]; 100 mg/kg twice daily po, previous study): 4/5; in vivo efficacy (efficacious dose) ([15]; twice daily, po): 100 mg/kg
